Measurements taken from patent US7138361B2, “Herbicidal heterocycles” (E. I. du Pont de Nemours and Company, priority 2000, dated 2006).

How the values were obtained:
Experiment in all cases: Test C preemergence
Type in all cases: in vivo
Nightshade = test system: Nightshade
Description: (§1) Seeds of plant species selected from bermudagrass (Cynodon dactylon), Surinam grass (Brachiaria decumbens), cocklebur (Xanthium strumarium), corn (Zea mays), crabgrass (Digitaria sanguinalis), woolly cupgrass (Eriochloa villosa), giant foxtail (Setaria faberii), goosegrass (Eleusine indica), johnsongrass (Sorghum halepense), kochia (Kochia scoparia), lambsquarters (Chenopodium album), morningglory (Ipomoea hederacea), yellow nutsedge (Cyperus esculentus), pigweed (Amaranthus retroflexus), common ragweed (Ambrosia elatior), soybean (Glycine max) and velvetleaf (Abutilon theophrasti) were planted and treated preemergence with test chemicals formulated in a non-phytotoxic solvent mixture which included a surfactant.
(§2) At the same time, plants selected from these crop and weed species and also winter barley (Hordeum vulgare), blackgrass (Alopecurus myosuroides), canary grass (Phalaris minor), chickweed (Stellaria media), downy brome (Bromus tectorum), green foxtail (Setaria viridis), Italian ryegrass (Lolium multiflorum), wheat (Triticum aestivum), wild oat (Avena fatua) and windgrass (Apera spica-venti) were treated with postemergence applications of some of the test chemicals formulated in the same manner. Plants ranged in height from 2 to 18 cm (1- to 4-leaf stage) for postemergence treatments. Plant species in the flooded paddy test consisted of rice (Oryza saliva), smallflower flatsedge (Cyperus difformis), duck salad (Heteranthera limosa) and barnyardgrass (Echinochloa crus-galli) grown to the 2-leaf stage for testing. Treated plants and controls were maintained in a greenhouse for 12 to 14 days, after which time all species were compared to controls and visually evaluated. Plant response ratings, summarized in Table C, are based on a scale of 0 to 100 where 0 is no effect and 100 is complete control. A dash (-) response means no test result.

Sunflower = test system: Sunflower
Description: as §1, §2

[1] = test system: Surinam grass (Brachiaria decumbens)
Description: as §1, §2

[2] = test system: bermudagrass (Cynodon dactylon)
Description: as §1, §2

[3] = test system: cocklebur (Xanthium strumarium)
Description: as §1, §2

[4] = test system: common ragweed (Ambrosia elatior)
Description: as §1, §2

corn (Zea mays) = test system: corn (Zea mays)
Description: as §1, §2

[5] = test system: crabgrass (Digitaria sanguinalis)
Description: as §1, §2

[6] = test system: giant foxtail (Setaria faberii)
Description: as §1, §2

[7] = test system: goosegrass (Eleusine indica)
Description: as §1, §2

[8] = test system: johnsongrass (Sorghum halepense)
Description: as §1, §2

kochia (Kochia scoparia) = test system: kochia (Kochia scoparia)
Description: as §1, §2

[9] = test system: lambsquarters (Chenopodium album)
Description: as §1, §2

[10] = test system: morningglory (Ipomoea hederacea)
Description: as §1, §2

[11] = test system: pigweed (Amaranthus retroflexus)
Description: as §1, §2

soybean (Glycine max) = test system: soybean (Glycine max)
Description: as §1, §2

[12] = test system: velvetleaf (Abutilon theophrasti)
Description: as §1, §2

[13] = test system: woolly cupgrass (Eriochloa villosa)
Description: as §1, §2

[14] = test system: yellow nutsedge (Cyperus esculentus)
Description: as §1, §2

[15] = Rate 62 g/ha, scale 0 to 100, 0 no effect, 100 complete control
[16] = Preemergence, Rate 500 g/ha, scale 0 to 100
[17] = preemergence, Rate 250 g/ha, visual evaluation after 12 to 14 days
[18] = preemergence, Rate 125 g/ha, scale 0 to 100, 0 no effect, 100 complete control

## CC(C)(C)c1ccn(C2CCN(c3cccc(Br)c3)C2=O)n1 (stereo not drawn) [Compound 33]
Nightshade; [15]
  Plant response rating, Nightshade: 0
Nightshade; Rate 500 g/ha, scale 0 to 100
  Plant response rating, Nightshade: 100
Sunflower; [15]
  Plant response rating, Sunflower: 0
Sunflower; Rate 500 g/ha, scale 0 to 100
  Plant response rating, Sunflower: 60
[1]; [16]
  Plant response rating, Surinam grass: 100
[1]; [15]
  Plant response rating, Surinam grass: 0
[1]; [17]
  Plant response rating (0 to 100), Surinam grass: 90
[1]; [18]
  Plant response rating, Surinam grass: 0
[2]; [16]
  Plant response rating, Bermudagrass: 100
[2]; [15]
  Plant response rating, Bermudagrass: 90
[2]; [17]
  Plant response rating (0 to 100 where 0 is no effect and 100 is complete control), Bermudagrass: 100
[2]; [18]
  Plant response rating, Bermudagrass: 100
[3]; [16]
  Plant response rating, Cocklebur: 0
[3]; [15]
  Plant response rating, Cocklebur: 0
[3]; [17]
  Plant response rating (0 to 100), Cocklebur: 0
[3]; [18]
  Plant response rating, Cocklebur: 0
[4]; [16]
  Plant response rating, Ragweed, Common: 30
[4]; [15]
  Plant response rating, Ragweed, Common: 0
[4]; [17]
  Plant response rating (0 to 100), Ragweed, Common: 0
[4]; [18]
  Plant response rating, Ragweed, Common: 0
Corn (Zea mays); [16]
  Plant response rating, Corn: 40
Corn (Zea mays); [15]
  Plant response rating, Corn: 0
Corn (Zea mays); [17]
  Plant response rating (0 to 100), Corn: 0
Corn (Zea mays); [18]
  Plant response rating, Corn: 0
[5]; [16]
  Plant response rating, Crabgrass: 100
[5]; [15]
  Plant response rating, Crabgrass: 80
[5]; [17]
  Plant response rating (0 to 100), Crabgrass: 100
[5]; [18]
  Plant response rating, Crabgrass: 100
[6]; [16]
  Plant response rating, Foxtail, Giant: 30
[6]; [15]
  Plant response rating, Foxtail, Giant: 50
[6]; [17]
  Plant response rating (0 to 100), Foxtail, Giant: 0
[6]; [18]
  Plant response rating, Foxtail, Giant: 100
[7]; [16]
  Plant response rating, Goosegrass: 100
[7]; [15]
  Plant response rating, Goosegrass: 80
[7]; [17]
  Plant response rating (0 to 100), Goosegrass: 100
[7]; [18]
  Plant response rating, Goosegrass: 100
[8]; [16]
  Plant response rating, Johnsongrass: 100
[8]; [15]
  Plant response rating, Johnsongrass: 0
[8]; [17]
  Plant response rating (0 to 100), Johnsongrass: 0
[8]; [18]
  Plant response rating, Johnsongrass: 0
Kochia (Kochia scoparia); [16]
  Plant response rating, Kochia: 100
Kochia (Kochia scoparia); [15]
  Plant response rating, Kochia: 100
Kochia (Kochia scoparia); [17]
  Plant response rating (0 to 100), Kochia: 100
Kochia (Kochia scoparia); [18]
  Plant response rating, Kochia: 100
[9]; [16]
  Plant response rating, Lambsquarters: 100
[9]; [15]
  Plant response rating, Lambsquarters: 100
[9]; [17]
  Plant response rating (0 to 100), Lambsquarters: 100
[9]; [18]
  Plant response rating, Lambsquarters: 100
[10]; [16]
  Plant response rating, Morningglory: 0
[10]; [15]
  Plant response rating, Morningglory: 0
[10]; [17]
  Plant response rating (0 to 100), Morningglory: 0
[10]; [18]
  Plant response rating, Morningglory: 0
[11]; [16]
  Plant response rating, Pigweed: 100
[11]; [15]
  Plant response rating, Pigweed: 0
[11]; [17]
  Plant response rating (0 to 100), Pigweed: 60
[11]; [18]
  Plant response rating, Pigweed: 0
Soybean (Glycine max); [16]
  Plant response rating, Soybean: 0
Soybean (Glycine max); [15]
  Plant response rating, Soybean: 0
Soybean (Glycine max); [17]
  Plant response rating (0 to 100), Soybean: 0
Soybean (Glycine max); [18]
  Plant response rating, Soybean: 0
[12]; [16]
  Plant response rating, Velvetleaf: 0
[12]; [15]
  Plant response rating, Velvetleaf: 0
[12]; [17]
  Plant response rating (0 to 100), Velvetleaf: 0
[12]; [18]
  Plant response rating, Velvetleaf: 0
[13]; [16]
  Plant response rating, Cupgrass, Woolly: 100
[13]; [15]
  Plant response rating, Cupgrass, Woolly: 20
[13]; [17]
  Plant response rating (0 to 100), Cupgrass, Woolly: 100
[13]; [18]
  Plant response rating, Cupgrass, Woolly: 90
[14]; [16]
  Plant response rating, Nutsedge: 0
[14]; [15]
  Plant response rating, Nutsedge: 0
[14]; [17]
  Plant response rating (0 to 100), Nutsedge: 0
[14]; [18]
  Plant response rating, Nutsedge: 0
